# Source: the NIST ThermoML archive (doi:10.1021/je060457+)
# ± gives the expanded uncertainty stated by the source.
# Experiment: xn = mol fraction of the nth substance listed
# Settings: 101 kPa, Liquid; for viscosity: Capillary tube (Ostwald / Ubbelohde) method; for mass density: Vibrating tube method
smiles,measurement,setting,value
CNCCO [2-(methylamino)ethanol] + O,viscosity,"298.15 K, x1 = 0.0493",1.801 ± 0.023 mPa·s
same,viscosity,"298.15 K, x1 = 0.0657",2.258 ± 0.029 mPa·s
same,viscosity,"298.15 K, x1 = 0.1054",3.804 ± 0.049 mPa·s
same,viscosity,"298.15 K, x1 = 0.1987",8.788 ± 0.11 mPa·s
same,viscosity,"298.15 K, x1 = 0.2946",13.51 ± 0.17 mPa·s
same,viscosity,"298.15 K, x1 = 0.388",18.21 ± 0.23 mPa·s
same,viscosity,"298.15 K, x1 = 0.5041",19.98 ± 0.26 mPa·s
same,viscosity,"298.15 K, x1 = 0.6",19.11 ± 0.26 mPa·s
same,viscosity,"298.15 K, x1 = 0.7003",17.02 ± 0.23 mPa·s
same,viscosity,"298.15 K, x1 = 0.8019",14.38 ± 0.2 mPa·s
same,viscosity,"298.15 K, x1 = 0.898",12.46 ± 0.18 mPa·s
same,viscosity,"298.15 K, x1 = 1",10.51 ± 0.16 mPa·s
same,mass density,"298.15 K, x1 = 0.0499",996.45 ± 0.25 kg/m3
same,mass density,"298.15 K, x1 = 0.0657",996.78 ± 0.26 kg/m3
same,mass density,"298.15 K, x1 = 0.1054",997.9 ± 0.3 kg/m3
same,mass density,"298.15 K, x1 = 0.1987",996.03 ± 0.32 kg/m3
same,mass density,"298.15 K, x1 = 0.301",988.25 ± 0.36 kg/m3
same,mass density,"298.15 K, x1 = 0.3834",980.24 ± 0.41 kg/m3
same,mass density,"298.15 K, x1 = 0.5041",968.81 ± 0.47 kg/m3
same,mass density,"298.15 K, x1 = 0.6",960.3 ± 0.52 kg/m3
same,mass density,"298.15 K, x1 = 0.6974",953.64 ± 0.57 kg/m3
same,mass density,"298.15 K, x1 = 0.8009",946.63 ± 0.64 kg/m3
same,mass density,"298.15 K, x1 = 0.9031",940.86 ± 0.7 kg/m3
same,mass density,"298.15 K, x1 = 1",936.18 ± 0.76 kg/m3
same,viscosity,"303.15 K, x1 = 0.0493",1.556 ± 0.02 mPa·s
same,viscosity,"303.15 K, x1 = 0.0657",1.927 ± 0.025 mPa·s
same,viscosity,"303.15 K, x1 = 0.1054",3.169 ± 0.041 mPa·s
same,viscosity,"303.15 K, x1 = 0.1987",6.987 ± 0.088 mPa·s
same,viscosity,"303.15 K, x1 = 0.2946",10.53 ± 0.13 mPa·s
same,viscosity,"303.15 K, x1 = 0.388",14.11 ± 0.18 mPa·s
same,viscosity,"303.15 K, x1 = 0.5041",15.44 ± 0.2 mPa·s
same,viscosity,"303.15 K, x1 = 0.6",15.05 ± 0.2 mPa·s
same,viscosity,"303.15 K, x1 = 0.7003",13.42 ± 0.19 mPa·s
same,viscosity,"303.15 K, x1 = 0.8019",11.43 ± 0.16 mPa·s
same,viscosity,"303.15 K, x1 = 0.898",10 ± 0.14 mPa·s
same,viscosity,"303.15 K, x1 = 1",8.522 ± 0.13 mPa·s
same,mass density,"303.15 K, x1 = 0.0499",994.49 ± 0.25 kg/m3
same,mass density,"303.15 K, x1 = 0.0657",994.58 ± 0.26 kg/m3
same,mass density,"303.15 K, x1 = 0.1054",995.16 ± 0.27 kg/m3
same,mass density,"303.15 K, x1 = 0.1987",992.48 ± 0.32 kg/m3
same,mass density,"303.15 K, x1 = 0.301",984.47 ± 0.36 kg/m3
same,mass density,"303.15 K, x1 = 0.3834",976.43 ± 0.4 kg/m3
same,mass density,"303.15 K, x1 = 0.5041",965 ± 0.47 kg/m3
same,mass density,"303.15 K, x1 = 0.6",956.5 ± 0.5 kg/m3
same,mass density,"303.15 K, x1 = 0.6974",949.81 ± 0.57 kg/m3
same,mass density,"303.15 K, x1 = 0.8009",942.76 ± 0.63 kg/m3
same,mass density,"303.15 K, x1 = 0.9031",936.96 ± 0.7 kg/m3
same,mass density,"303.15 K, x1 = 1",932.26 ± 0.76 kg/m3
same,viscosity,"313.15 K, x1 = 0.0493",1.195 ± 0.015 mPa·s
same,viscosity,"313.15 K, x1 = 0.0657",1.45 ± 0.019 mPa·s
same,viscosity,"313.15 K, x1 = 0.1054",2.272 ± 0.029 mPa·s
same,viscosity,"313.15 K, x1 = 0.1987",4.622 ± 0.059 mPa·s
same,viscosity,"313.15 K, x1 = 0.2946",6.748 ± 0.087 mPa·s
same,viscosity,"313.15 K, x1 = 0.388",8.852 ± 0.12 mPa·s
same,viscosity,"313.15 K, x1 = 0.5041",9.719 ± 0.13 mPa·s
same,viscosity,"313.15 K, x1 = 0.6",9.424 ± 0.13 mPa·s
same,viscosity,"313.15 K, x1 = 0.7003",8.652 ± 0.12 mPa·s
same,viscosity,"313.15 K, x1 = 0.8019",7.547 ± 0.11 mPa·s
same,viscosity,"313.15 K, x1 = 0.898",6.716 ± 0.098 mPa·s
same,viscosity,"313.15 K, x1 = 1",5.833 ± 0.087 mPa·s
same,mass density,"313.15 K, x1 = 0.0499",990.11 ± 0.25 kg/m3
same,mass density,"313.15 K, x1 = 0.0657",989.79 ± 0.26 kg/m3
same,mass density,"313.15 K, x1 = 0.1054",989.39 ± 0.27 kg/m3
same,mass density,"313.15 K, x1 = 0.1987",985.28 ± 0.31 kg/m3
same,mass density,"313.15 K, x1 = 0.301",976.815 ± 0.36 kg/m3
same,mass density,"313.15 K, x1 = 0.3834",968.73 ± 0.4 kg/m3
same,mass density,"313.15 K, x1 = 0.5041",957.32 ± 0.46 kg/m3
same,mass density,"313.15 K, x1 = 0.6",948.83 ± 0.51 kg/m3
same,mass density,"313.15 K, x1 = 0.6974",942.12 ± 0.57 kg/m3
same,mass density,"313.15 K, x1 = 0.8009",935.01 ± 0.63 kg/m3
same,mass density,"313.15 K, x1 = 0.9031",929.16 ± 0.69 kg/m3
same,mass density,"313.15 K, x1 = 1",924.42 ± 0.75 kg/m3
same,viscosity,"323.15 K, x1 = 0.0493",0.9978 ± 0.013 mPa·s
same,viscosity,"323.15 K, x1 = 0.0657",1.133 ± 0.015 mPa·s
same,viscosity,"323.15 K, x1 = 0.1054",1.643 ± 0.021 mPa·s
same,viscosity,"323.15 K, x1 = 0.1987",3.242 ± 0.042 mPa·s
same,viscosity,"323.15 K, x1 = 0.2946",4.581 ± 0.059 mPa·s
same,viscosity,"323.15 K, x1 = 0.388",5.886 ± 0.077 mPa·s
same,viscosity,"323.15 K, x1 = 0.5041",6.458 ± 0.087 mPa·s
same,viscosity,"323.15 K, x1 = 0.6",6.319 ± 0.086 mPa·s
same,viscosity,"323.15 K, x1 = 0.7003",5.881 ± 0.082 mPa·s
same,viscosity,"323.15 K, x1 = 0.8019",5.229 ± 0.075 mPa·s
same,viscosity,"323.15 K, x1 = 0.898",4.725 ± 0.069 mPa·s
same,viscosity,"323.15 K, x1 = 1",4.177 ± 0.063 mPa·s
same,mass density,"323.15 K, x1 = 0.0499",985.07 ± 0.25 kg/m3
same,mass density,"323.15 K, x1 = 0.0657",984.41 ± 0.26 kg/m3
same,mass density,"323.15 K, x1 = 0.1054",983.17 ± 0.27 kg/m3
same,mass density,"323.15 K, x1 = 0.1987",977.79 ± 0.31 kg/m3
same,mass density,"323.15 K, x1 = 0.301",968.97 ± 0.36 kg/m3
same,mass density,"323.15 K, x1 = 0.3834",960.83 ± 0.4 kg/m3
same,mass density,"323.15 K, x1 = 0.5041",949.46 ± 0.46 kg/m3
same,mass density,"323.15 K, x1 = 0.6",940.99 ± 0.51 kg/m3
same,mass density,"323.15 K, x1 = 0.6974",934.27 ± 0.56 kg/m3
same,mass density,"323.15 K, x1 = 0.8009",927.12 ± 0.62 kg/m3
same,mass density,"323.15 K, x1 = 0.9031",921.24 ± 0.68 kg/m3
same,mass density,"323.15 K, x1 = 1",916.48 ± 0.74 kg/m3
same,viscosity,"333.15 K, x1 = 0.0493",0.817 ± 0.01 mPa·s
same,viscosity,"333.15 K, x1 = 0.0657",0.9621 ± 0.013 mPa·s
same,viscosity,"333.15 K, x1 = 0.1987",2.379 ± 0.03 mPa·s
same,viscosity,"333.15 K, x1 = 0.2946",3.261 ± 0.042 mPa·s
same,viscosity,"333.15 K, x1 = 0.388",4.107 ± 0.054 mPa·s
same,viscosity,"333.15 K, x1 = 0.5041",4.499 ± 0.061 mPa·s
same,viscosity,"333.15 K, x1 = 0.6",4.429 ± 0.061 mPa·s
same,viscosity,"333.15 K, x1 = 0.7003",4.177 ± 0.059 mPa·s
same,viscosity,"333.15 K, x1 = 0.8019",3.78 ± 0.054 mPa·s
same,viscosity,"333.15 K, x1 = 0.898",3.463 ± 0.051 mPa·s
same,viscosity,"333.15 K, x1 = 1",3.108 ± 0.047 mPa·s
same,mass density,"333.15 K, x1 = 0.0499",979.47 ± 0.25 kg/m3
same,mass density,"333.15 K, x1 = 0.0657",978.52 ± 0.26 kg/m3
same,mass density,"333.15 K, x1 = 0.1054",976.55 ± 0.27 kg/m3
same,mass density,"333.15 K, x1 = 0.1987",970.11 ± 0.31 kg/m3
same,mass density,"333.15 K, x1 = 0.301",960.9 ± 0.4 kg/m3
same,mass density,"333.15 K, x1 = 0.3834",952.72 ± 0.4 kg/m3
same,mass density,"333.15 K, x1 = 0.5041",941.41 ± 0.45 kg/m3
same,mass density,"333.15 K, x1 = 0.6",932.98 ± 0.5 kg/m3
same,mass density,"333.15 K, x1 = 0.6974",926.28 ± 0.56 kg/m3
same,mass density,"333.15 K, x1 = 0.8009",919.16 ± 0.61 kg/m3
same,mass density,"333.15 K, x1 = 0.9031",913.22 ± 0.67 kg/m3
same,mass density,"333.15 K, x1 = 1",908.46 ± 0.73 kg/m3
same,viscosity,"343.15 K, x1 = 0.0493",0.6997 ± 0.009 mPa·s
same,viscosity,"343.15 K, x1 = 0.0657",0.7903 ± 0.01 mPa·s
same,viscosity,"343.15 K, x1 = 0.1054",1.023 ± 0.013 mPa·s
same,viscosity,"343.15 K, x1 = 0.1987",1.747 ± 0.023 mPa·s
same,viscosity,"343.15 K, x1 = 0.2946",2.416 ± 0.032 mPa·s
same,viscosity,"343.15 K, x1 = 0.388",2.986 ± 0.04 mPa·s
same,viscosity,"343.15 K, x1 = 0.5041",3.255 ± 0.044 mPa·s
same,viscosity,"343.15 K, x1 = 0.6",3.227 ± 0.045 mPa·s
same,viscosity,"343.15 K, x1 = 0.7003",3.075 ± 0.043 mPa·s
same,viscosity,"343.15 K, x1 = 0.8019",2.827 ± 0.041 mPa·s
same,viscosity,"343.15 K, x1 = 0.898",2.618 ± 0.039 mPa·s
same,viscosity,"343.15 K, x1 = 1",2.385 ± 0.036 mPa·s
same,mass density,"343.15 K, x1 = 0.0499",973.37 ± 0.25 kg/m3
same,mass density,"343.15 K, x1 = 0.0657",972.17 ± 0.26 kg/m3
same,mass density,"343.15 K, x1 = 0.1054",969.57 ± 0.27 kg/m3
same,mass density,"343.15 K, x1 = 0.1987",962.17 ± 0.31 kg/m3
same,mass density,"343.15 K, x1 = 0.301",952.65 ± 0.36 kg/m3
same,mass density,"343.15 K, x1 = 0.3834",944.43 ± 0.39 kg/m3
same,mass density,"343.15 K, x1 = 0.5041",933.17 ± 0.45 kg/m3
same,mass density,"343.15 K, x1 = 0.6",924.8 ± 0.5 kg/m3
same,mass density,"343.15 K, x1 = 0.6974",918.16 ± 0.55 kg/m3
same,mass density,"343.15 K, x1 = 0.8009",911 ± 0.61 kg/m3
same,mass density,"343.15 K, x1 = 0.9031",905.06 ± 0.67 kg/m3
same,mass density,"343.15 K, x1 = 1",900.3 ± 0.72 kg/m3
